As a reminder, the IC50 is the concentration at which inhibition is half-maximal. Lower therefore signals higher potency.

In PubChem BioAssay AID2305 (GlaxoSmithKline (GSK), 2010) one finds IC50 data, which are given here for 65 compounds.

The subject of the test is P. falciparum 3D7 growth, pLDH absorbance. Nature of the test: P. falciparum 3D7 growth inhibition, dose response, strain 3D7 (AID 2305).

Regarding `C[C@@]12C[C@@H](Nc3nc(NCCc4ccc(O)cc4)nc(N4CCNCC4)n3)C[C@@H](C1)c1cccc(Cl)c1O2`, the IC50 was 1.32 µM.
Then `O=C(Nc1ccc2c(c1)CCN2C1CCN(Cc2cc(F)cc(F)c2F)C1)c1ccco1` (stereo not given), with 0.59 µM; and `O=C(N[C@@H](Cc1ccccc1)[C@H](O)CNCCC(F)(F)F)c1cccc(CCC2CC2)c1`, with 1.02 µM.
On to `CC(=NNc1nc2ccccc2s1)c1ccccn1`, for which the half-maximal inhibitory concentration (IC50) turned out to be 1.12 µM.
The compound `Cc1c(-c2ccc3c(c2)C(NCCCN2CCCCC2)CC3)cnc(N)c1C` (stereo not given) displayed an IC50 of 1.11 µM.
For `CC(=O)c1ccc(O)c(CC(O)CO)c1` (stereo not given) the value was 0.72 µM; for `CN(C)c1ccc(-c2csc(C(=O)NC3CCN(CCC(C)(C)C)C3)c2)cc1` (stereo not given), 0.97 µM; for `O=C(Nc1cccc(Cl)c1)c1cnc(N2CCN(c3ccncc3)CC2)c(Cl)c1`, 0.96 µM.
On to `C[C@@H]1CN(c2cnn(Cc3ccc(NC(=O)Nc4ccc(F)cc4[N+](=O)[O-])cc3)c(=O)c2Cl)C[C@H](C)N1`, for which the IC50 was found to be 0.81 µM.
For `O=C1COc2ccc(CNC3CCC(O)(CCc4ccnc5cc6c(cc45)OCCO6)CC3)nc2N1` (stereo not given) the value was 0.93 µM.
For `CC(Cc1ccc(NC(=O)c2ccc(CNCc3ccccc3)cc2)cc1)N(CCc1cccc(Cl)c1)C(=O)OC(C)(C)C` (stereo not given) the value was 0.97 µM; for `N#CC(c1ccc(Cl)cc1)c1ccc2c(C(F)(F)F)cc(C(F)(F)F)nc2n1` (stereo not given), 1.01 µM; for `CC(C)CCNC(=O)C1Cc2c([nH]c3cc(Br)ccc23)C2(CCN(CCc3ccccc3)CC2)N1` (stereo not given), 0.91 µM.
Then `CN1CCC(N2CCN(CCOc3cc(NC(=O)/C=C/c4ccccc4Cl)ccc3Br)CC2)CC1`, with 0.36 µM.
`COc1cc2nccc(Nc3ccc4c(cnn4Cc4cccc(F)c4)c3)c2cc1OC` displayed an IC50 of 0.24 µM.
Then `COc1cc2c(cc1OCCN1CCC(N3CCCCC3)CC1)N(C(=O)/C=C/c1ccccc1OC(F)(F)F)CC2`, with 0.59 µM.
Then `Cc1ccc(Nc2ccnc3cc(-c4nccs4)ccc23)cc1C(O)c1ccccc1` (stereo not given), with 0.74 µM.
For `CCN(CC)CCCCNc1cc(-c2[nH]c(C(C)(C)C)nc2-c2ccc3cc(OC)ccc3c2)ccn1` the value was 0.53 µM.
Compound `CC(C)Cc1cn(-c2nc(-c3nc4ccccc4[nH]3)cs2)c2ccncc12` returned an IC50 of 0.09 µM.
As for `Cc1[nH]c2c(C)cc(NS(C)(=O)=O)cc2c1C1CCN(CC2CCN(C(=O)/C=C/c3ccc(Cl)c(Cl)c3)CC2)CC1`, the IC50 was 0.24 µM.
Then `Cc1cc(NC(=O)Nc2cccc(Cl)c2Cl)c2ccccc2n1`, with 0.74 µM; and `COc1cc(OC)cc(C(=O)Nc2ccc(Nc3nc(C)cc(N(C)C)n3)cc2)c1`, with 0.65 µM.
`Fc1ccc2nc(-c3ccc(-c4ccc(CNCCN5CCNCC5)cc4)cc3)[nH]c2c1` registered an IC50 of 0.85 µM.
Regarding `C(=N\Nc1nccc2sc(-c3ccccc3)cc12)/c1cccnc1`, the IC50 is 0.82 µM.
Consider `COc1ccc2nc(/N=C(/N)NC(=O)Nc3ccccc3)nc(C)c2c1`, for which the half-maximal inhibitory concentration (IC50) was 1.28 µM.
For `OC(CNc1ccnc(Nc2cccc(Cl)c2)n1)c1cccc(C(F)(F)F)c1` (stereo not given) the value was 0.51 µM; for `Cc1cccc2[nH]c(-c3ccc(-c4ccc(CNCCNC(=O)c5ccnn5C)cc4)cc3)nc12`, 0.48 µM; for `Cc1noc(C)c1-c1ccc2c(Nc3ccccc3C(C)(C)C)c(C(=O)NCc3ccc4c(c3)OCO4)cnc2c1`, 0.91 µM.
`O=[N+]([O-])c1ccc(-c2nc3ccc(C4=N[C@H]5CCCC[C@H]5N4)cc3[nH]2)cc1` displayed an IC50 of 0.69 µM.
Regarding `COc1ccc2nccc([C@@H](O)CNCCCN(C)CCOc3cc(F)cc(F)c3)c2c1`, the half-inhibitory concentration (IC50) turned out to be 0.79 µM.
Compound `Cc1cccc2[nH]c(-c3ccc(-c4cccc(CNCCCNS(C)(=O)=O)c4)cc3)nc12` came in with a concentration for half-maximal inhibition (IC50) of 1.22 µM.
Turning to `CC(=O)c1c(Cc2cccc(C(F)(F)F)c2)c[nH]c1C`, the IC50 came to 0.35 µM.
`COc1cncc(/C=C/c2cncc(C(=O)NCCc3ccc(Cl)cc3Cl)c2)c1` showed an IC50 of 0.88 µM.
On to `CC(=O)Nc1ccc(CN(C)C2CCN(c3cc(NC(=O)c4cccc(C)c4)ccn3)CC2)cc1`, for which the 50% inhibitory concentration (IC50) worked out at 0.9 µM.
For `O=c1[nH]c2c(c(O)c1[N+](=O)[O-])CCC2` the value was 1.05 µM.
For `CCn1c(Sc2ccc(C#N)c([N+](=O)[O-])c2)nnc1-c1cccc(Cl)c1` the value was 0.45 µM.
Then `O=C(Nc1ccc2c(c1)CCNCC2)Nc1ccc2ccccc2c1`, with 0.62 µM; and `CCCc1ccc(S(=O)(=O)Nc2ccc3c(c2)CCC3)cc1`, with 0.88 µM.
On to `CN1CCCC(COc2cc3c(cc2Br)CCN3C(=O)Nc2ccc(-c3ccncc3)c(Cl)c2)C1` (stereo not given), for which the 50% inhibitory concentration (IC50) turned out to be 0.23 µM.
Turning to `COc1ccc(NC(=O)N2CCc3ccc(OCCN(C(C)C)C(C)C)cc32)cc1C(F)(F)F`, the IC50 turned out to be 0.97 µM.
The compound `c1cc(-c2ccc(CN3CCCC3)cc2)cc(-c2nc3ccccc3[nH]2)c1` came in with an IC50 of 0.69 µM.
For `Cc1cccc2[nH]c(-c3cccc(-c4ccc(CNCc5ccccc5)cc4)c3)nc12` the value was 0.15 µM.
`CCOc1cccc(C(=O)Nc2ccc(-c3nc4ccccc4[nH]3)cc2)c1` had an IC50 of 1.01 µM.
As to `Cc1cc(N[C@@H](CC(C)C)C(=O)NC2CCCC2)nc(NCC2CCCCC2)n1`, the IC50 was found to be 0.86 µM.
Then `O=C(N[C@@H](CC1CCCCC1)C(=O)NCCc1ccc(Cl)c(Cl)c1)c1ccc(O)c(-c2ccc(Cl)c(Cl)c2)c1`, with 0.16 µM.
Then `CN(C)S(=O)(=O)n1ccc2c3c(N)nc(N)nc3ccc21`, with 0.05 µM; and `Cc1ccc(Oc2ncccc2C(=O)Nc2cccc3cccnc23)c(C)c1`, with 0.22 µM; and `CCCc1cc(Cc2cnc(N)nc2N)cc(CCC)c1OCCCCCC(=O)OCC`, with 0.05 µM.
As to `CC=Cc1cc(Cc2cnc(N)nc2N)cc(CCC)c1OC`, the concentration for half-maximal inhibition (IC50) was determined as 0.78 µM.
Regarding `CN1CC=C(c2c[nH]c3ccc(Sc4ccccc4)cc23)CC1`, the concentration for half-maximal inhibition (IC50) is 0.36 µM.
Then `Cc1cccc(-c2ccc(NC(=O)C3CCN(Cc4cccc(O)c4)CC3)cc2)c1`, with 0.98 µM; and `CCCc1cc(OC)c(CC2c3cccc(O)c3CCN2C)cc1OC` (stereo not given), with 0.3 µM.
As to `N#Cc1cccc(C(=O)Nc2ccc(-c3ccc(CN4CCCC4)cc3)cc2)c1`, the IC50 is 1.15 µM.
`CCc1ccc(NC(=O)c2cccc(CN3CCCN(Cc4ccc(OC)cc4)CC3)c2)cc1`: the concentration for half-maximal inhibition (IC50) was found to be 0.92 µM.
The compound `C=CCNC(=O)C(C)c1ccc2cc(OC)ccc2c1` (stereo not given) had an IC50 of 0.42 µM.
For `O=C(Cc1cnc[nH]1)Nc1cccc(-c2ccc(-c3nc4ccccc4[nH]3)cc2)c1`, the 50% inhibitory concentration (IC50) is 0.76 µM.
For `Cc1cc(-c2ccc3c(c2)CCN(CCC2CCC(NC(=O)/C=C/c4ccc(F)cc4)CC2)CC3)on1` (stereo not given) the value was 0.72 µM; for `Cc1nc(N)nc(N)c1OCCCCCCOc1ccccc1`, 0.24 µM; for `CCn1ccc2c3c(N)nc(N)nc3ccc21`, 0.31 µM.
As for `O=C(Nc1cccc(-c2cccc(-c3nc4ccc(C(F)(F)F)cc4[nH]3)c2)c1)Nc1ccc(F)c(F)c1F`, the IC50 came to 0.12 µM.
For `COc1ccc(NC(=O)C=Cc2ccc(Oc3ccccc3Cl)c([N+](=O)[O-])c2)cc1OCCN(C(C)C)C(C)C`, the IC50 turned out to be 0.88 µM.
Then `CC1(C)CNCc2cc(NC(=O)/C=C/c3ccc(Cl)cc3)ccc21`, with 1.18 µM.
For the compound `CCOC(=O)c1cn(CC)c2cc(N3CCCCCC3)c(F)cc2c1=O`, the IC50 turned out to be 0.41 µM.
For `CCCc1cnc2nc(N)nc(N)c2c1C` the value was 1.12 µM; for `COc1ccccc1N(C)CCNc1cc(C)nc(Nc2ccc(C)cc2)n1`, 1.57 µM.
